Entries after “also recorded” stand apart in the source; their conditions may differ.
Assays:
[1] = Cloud point (LCST) measurement by spectrophotometry, light transmission at 750 nm; assay type: physicochemical; conditions: 2 wt % hydroxypropylcellulose; for Effect of modifier on the LCST of hydroxypropylcellulose (Klucel EF): 0.2M sodium citrate, 0.2M magnesium sulfate, 0.2M potassium phosphate monobasic, 0.02M calcium sulfate, 1M mannitol, 1M xylitol
Excerpt: The critical solution temperature of a polymer can be measured by spectrophotometry, by differential scanning calorimetry, or by nuclear magnetic resonance spectroscopy. For example, the spectrophotometrical method can be used to measure the cloud point of an LCST polymer. “Cloud point” generally refers to the temperature where the polymer solution in an aqueous medium becomes cloudy, indicating initiation of precipitation or flocculation of the polymer. The spectrophotometical method, as described as follows, can be adopted to screen various combinations of LCST polymers and modifiers to determine whether a modifier is capable of reducing the LCST of a polymer to about 37° C. or lower.
An LCST polymer is dissolved in distilled water and, optionally, separate solutions of LCST modifiers at various concentrations. Each polymer or polymer/modifier test solution is placed in a separate container, such as a bottle or a beaker, and each container is placed in a water bath. The water bath is equipped with a temperature regulator, and the temperature of the bath is set at approximately 60° C. (the temperature of the bath can start at a high temperature or, alternatively, the temperature of the water bath can start low and be increased gradually at a rate of, e.g., 1° C./min). While in the water bath, each test solution is circulated through a 1-cm flowthrough quartz cuvette using a peristaltic pump (Masterflex) at a flow rate of 50 ml/min. The temperature of the test solution is monitored using a thermocouple, the lead of which is inserted into the test solution in the container. Alternatively, the lead of the thermocouple can be inserted into the cuvette through tubing connecting the container and the cuvette. The light transmission (T %) of each solution is measured spectrophotometrically with a UV spectrophotometer at a wavelength of 750 nm. Initially, spectrophotometric measurements are taken at 2-3° C. intervals. Near the cloud point of a particular polymer or polymer/modifier combination, spectrophotometric measurements are taken more frequently (e.g., at 1 ° C. intervals). The cloud point is ascertained as the temperature at which the light transmission is 90% of the transmission at room temperature.

[2] = Tablet disintegration time in deionized water at 37° C., disintegration tester; assay type: physicochemical; conditions: 500 mg tablets, 1.3 cm diameter; 300 ml DI water at 37° C., 200 rpm paddle; n=3
Method: To compare the cohesive properties of the modifiers tested in Example 2, tablets containing 95 wt % of each potential LSCT modifier and 5 wt % of cross-linked sodium carboxylmethylcellulose (Croscarmellose sodium) were tested for their average disintegration time in aqueous medium using a disintegration tester (LIJ-2, Vanguard Pharmaceutical Machinery, Inc. USA). The potential LCST modifier and Croscarmellose sodium were dry-blended in a vial and 500 mg of each blend were compressed under 1 metric ton of compression pressure using a 1.3 cm diameter rounding tool. The resulting tablets were placed into 300 ml of deionized (DI) water (at 37° C., agitated using a 200 rpm paddle) and the disintegration times of the tablets (i.e., the time that it took for each tablet to completely dissolve) were measured. Disintegration times were measured for three tablets of each modifier and average disintegration rates and standard deviates were determined. […]
An orally disintegrating placebo tablet comprising hydroxypropylcellulose as the LCST polymer and calcium sulfate as the modifier was manufactured as follows. […] The mean disintegration time of the tablets (n=3) was 35 seconds, with standard deviation of 4 seconds, as measured in de-ionized water at 37° C. using a disintegration tester (LIJ-2, Vanguard Pharmaceutical Machinery, Inc. USA). […]

Effect of modifier on the LCST of hydroxypropylcellulose (Klucel EF) ([1]; listed as potassium phosphate (monobasic))	Structure (SMILES)	Effect of modifier on the LCST of hydroxypropylcellulose (Klucel EF) [1]	Disintegration time of tablets of 95 wt % modifier and 5 wt % Croscarmellose sodium [2]	Effect of electrolyte modifier on the LCST of hydroxypropylcellulose, compared at equal concentration ([1]; electrolytes at 0.02M)
	OC[C@@H](O)[C@H](O)[C@@H](O)CO [xylitol]	significantly reduce the LCST; also recorded: capable of reducing the LCST of hydroxypropylcellulose		
	OC[C@@H](O)[C@@H](O)[C@H](O)[C@H](O)CO [mannitol]	significantly reduce the LCST; also recorded: capable of reducing the LCST of hydroxypropylcellulose		
significantly reduce the LCST	O=P([O-])(O)O.[K+] [potassium phosphate monobasic]	capable of reducing the LCST of hydroxypropylcellulose	one	
	O=S(=O)([O-])[O-].[Ca+2] [calcium sulfate]	significantly reduce the LCST; also recorded: capable of reducing the LCST of hydroxypropylcellulose	one	most effective reducer; also recorded: strongest effect on reducing the LCST
	O=S(=O)([O-])[O-].[Mg+2] [magnesium sulfate]	significantly reduce the LCST; also recorded: capable of reducing the LCST of hydroxypropylcellulose		
	O=C([O-])CC(O)(CC(=O)[O-])C(=O)[O-].[Na+].[Na+].[Na+] [sodium citrate]	significantly reduce the LCST; also recorded: capable of reducing the LCST of hydroxypropylcellulose		

Source: patent US8343978B2, “Fast onset orodispersable tablets” (Adds Pharmaceuticals LLC, priority 2008, dated 2013)
